Assay results reported in paper PMC12833730, “Discovery of a First‐in‐Class Covalent Allosteric SHP1 Inhibitor with Immunotherapeutic Activity” (Angewandte Chemie (International Ed. in English), 2025).
Entries after “also recorded” stand apart in the source; their conditions may differ.

Columns and labels:
SHP1 KO Jurkat T cells = assay: TCR-LCK signaling in SHP1 KO cells; assay type: cell-based
Experimental: Supernatants from lysed cells were reduced, treated with iodoacetamide to cap thiol residues, and digested by trypsin for bottom‐up proteomics analysis. […] LCK is the direct substrate of SHP1 and ERK1/2, and PLCγ is the downstream effector protein of LCK‐mediated TCR signaling. […] Statistical analyses were performed with Graphpad Prism software 10.4.2 through the one‐way ANOVA test using Turkey post‐hoc comparison. ****p < 0.0001 was considered significant.
To further confirm M029 cellular target engagement, we investigated the effect of M029 on T cell function. SHP1 plays a negative role in T cells, and deletion of SHP1 in T cells lowers the activation threshold and enhances antitumor immunity.^[ [30], [31], [32], [33] ^] Mechanistically, SHP1 attenuates T cell receptor (TCR) signaling via dephosphorylation of the lymphocyte‐specific protein tyrosine kinase LCK.^[ [31], [84], [85], [86] ^] T cell activation leads to increased expression and secretion of interleukin 2 (IL‐2)^[ [87] ^] while the removal of SHP1 in T cells enhances IL‐2 production, cell proliferation, and cytolysis capacity.^[ [30], [32] ^] Accordingly, we sought to assess the impact of targeting SHP1 with M029 on TCR‐LCK signaling and T cell activation. […] M029 also dose‐dependently promoted IL‐2 production (Figure 4c). […]

MC38 tumors = MC38 tumors in nude mice; assay type: in vivo; conditions: 25 mg/kg
Excerpt: To further establish whether the inhibitory effects of M029 on tumor progression could be attributable to enhanced antitumor immune responses, we treated MC38 tumors in nude mice. […] To evaluate the importance of CD8^+ T and NK cells in M029‐induced antitumor activity, we induced CD8^+ T cell or NK cell depletion in the MC38 syngeneic model using anti‐CD8 or anti‐NK1.1 antibodies as described in Figure 6c. […] These findings are consistent with the known role of SHP1 in T cells and with our in vitro data that indicate M029 enhances T cell activation with no direct effect on tumor cells. […] These findings align with previous reports that activated CD8^+ T cells recruit NK cells to tumors through releasing cytokines and chemokines like IFN‐γ.^[ [92] ^] The observed changes in immune activity induced by M029, such as increased tumor infiltration of cytotoxic CD8^+ T cells, enhanced T cell cytotoxicity and effector function, as well as improved NK cell infiltration and activation, collectively contribute to the anticancer effects exerted by M029 treatment.
Figure 6 Cytotoxic T‐cell activity is necessary for M029 antitumor activity. […] C57BL/6 mice were injected with anti‐CD8 or anti‐NK1.1 antibodies every 3–4 days for 8 days after tumor inoculation. […]

How did the “LCK, PLCγ, and ERK1/2 phosphorylation in SHP1-deleted cells” value (SHP1 KO Jurkat T cells) turn out when `N#Cc1ccsc1NS(=O)(=O)c1ccc(NC(=O)CCl)cc1` [M029, 2-Chloro-N-(4-(N-(3-cyanothiophen-2-yl)sulfamoyl)phenyl)acetamide] was run?
Its value is “abolished; also recorded: unable to alter”.

And the “MC38 tumor growth in nude mice” value (MC38 tumors)?
The value was “ineffective in inhibiting tumor growth; also recorded: no significant”.
